Source: US4921865A, “Aminoacylates of glycerol acetal” (Societe de Conseils de Recherches et d'Applications …, priority 1987, dated 1990)

What was measured:
[1] = molecular target: T1, [^3 H]-PAF binding, platelet membrane (Oryctolagus cuniculus, UniProt G1TEI7); test: inhibition of specific [3H]-PAF binding to rabbit platelet membranes; conditions: 1 nM [3H]-PAF, 0°C 1 h 30
T1 construct: Platelet membrane homogenate was stored at -80° C; from tissue; host or cells: rabbit platelets (membrane homogenate from lysed washed platelets)
Protocol: Synthetic tritiated [^3 H]-PAF used was in ethanol solution with a specific activity of 59.5 ci/mmols. Unlabelled PAF and lyso-PAF were solubilized in ethanol solution and stored at -80° C. The compounds were solubilized in DMSO.
Rabbit whole blood (6 volumes) was drawn from the central ear artery into 1 volume of ACD solution (citric acide 1.4 g, sodium citrate 2 5 g, Dextrose 2 g per 100 ml of H2 O) and centrifuged at 150 g for 15 minutes. The platelet-rich plasma (PRP) was carefully removed and centrifuged for 15 minutes at 1000 g. The platelet pellet was then washed 3 times: twice in Tris-HCl buffer 10 mM, pH 7.4 containing NaCl 150 mM, MgCl2 5 mM, EDTA 2 mM and the last time in the same but sodium-free buffer.
The platelet pellet was resuspended in this latter buffer, quickly frozen in liquid nitrogen and slowly thawed at room temperature for at least 3 times as described by T. Y. Shen et al. The lysed platelets were centrifuged at 100,000 g for 30 minutes in a BECKMAN model L8.55 ultra centrifuge (rotor 50.2 Ti). Platelet membrane homogenate was stored at -80° C. and used within two weeks without noticeable changes in PAF-acether binding characteristics.
Protein contain was determined by the Lowry method using bovine serum albumine as standard.
60 to 100 μg of membrane proteins were added to a final volume of 1 ml in plastic tubes containing 1 nM [^3 H]-PAF in Tris-HCl 10 mM pH 7 buffer containing 0.025 % bovine serum albumin and incubated with or without unlabelled PAF or PAF-antagonists. The incubation was carried out for 1 h 30 at 0° C. The bound [^3 H]-PAF was separated from the free [^3 H]-PAF by immediate filtration through whatman GF/C glass fiber filters under vacuum (Brandel system). The reaction and the filters were washed 3 times with 5 ml of ice-cold buffer. The filters were then placed into polyethylene phials filled up with 10 ml of liquid scintillation fluid and the radioactivity was measured by an LKB β counter with 45% efficiency.
The non specific binding was determined in the presence of 10^-6 M of unlabelled PAF. The specific binding was calculated by substracting non specific binding from the total binding. The inhibition by compounds on the specific [^3 H]-PAF binding was determined as the percent inhibition by the equation: [formula]

PAF-induced leukopenia = PAF-induced leukopenia in the guinea pig; assay type: in vivo; conditions: for Percentage Variation (leukopenia): vs control
Protocol: Male Guinea-pig (400-500 g) were anesthetized with urethane (1.5 g/kg: IP) prior to be tracheotomized and ventilated with a respiratory pump (UGO BASILE) (70-80 breath/minute, 1 ml air/100 g/breath) to abolish spontaneous respiration a pneumothorax was performed. The resistance to inflation was measured with a pressure transducer (UGO BASILE) against an initial pressure of 10 cm H2 O according to Konzett and Rossler. Animals were allocated into groups and were treated or not by the compounds of the invention (0.05, 0.1, 0.5, 1 and 5 mg/kg).The products were given IV 1 hour before challenge with PAF.
The animals were challenged with various doses of PAF ([…]) given intravenously, and the variations in the resistance to inflation were recorded.
Blood samples were collected prior to and 1,5 and 10 minutes following to PAF-challenge. Forty μl of blood were diluted in 10 ml isoton (Coultronics, France); erythrocytes were lysed with Zapoglobin (France) prior leukocytes were counted in a coulter counter. To determine platelet number, 40 μl of blood were diluted in 2 ml isoton and centrifuged at 100 runs per minute for 30 secondes, 100 μl of the supernatant were collected and further diluted in 10 ml isoton prior counting in a coulter counter.

[2] = tested on: antigen-induced bronchoconstriction; test: antigen-induced bronchoconstriction in passively sensitized guinea-pigs; assay type: in vivo, guinea-pig (Hartley); conditions: 5 mg/kg IV
[3] = tested on: antigen-induced leukopenia; test: antigen-induced leukopenia in passively sensitized guinea-pigs; assay type: in vivo, guinea-pig (Hartley); conditions: 5 mg/kg IV; for Percentage Inhibition (leukopenia): vs control
[4] = tested on: antigen-induced thrombocytopenia; test: antigen-induced thrombocytopenia in passively sensitized guinea-pigs; assay type: in vivo, guinea-pig (Hartley); conditions: 5 mg/kg IV; for Percentage Inhibition (thrombocytopenia): vs control

T1 sequence (G1TEI7 1-342): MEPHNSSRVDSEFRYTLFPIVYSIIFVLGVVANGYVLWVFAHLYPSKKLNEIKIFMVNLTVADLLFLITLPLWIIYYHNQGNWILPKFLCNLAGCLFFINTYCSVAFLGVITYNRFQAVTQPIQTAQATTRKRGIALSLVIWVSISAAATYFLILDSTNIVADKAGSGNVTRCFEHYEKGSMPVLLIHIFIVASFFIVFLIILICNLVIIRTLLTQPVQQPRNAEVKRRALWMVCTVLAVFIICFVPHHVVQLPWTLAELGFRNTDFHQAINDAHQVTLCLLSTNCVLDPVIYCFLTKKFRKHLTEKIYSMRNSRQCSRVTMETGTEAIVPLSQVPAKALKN

CCCCCCCCCCCCCCCCCC1(C)OCC(COC(=O)CCCCC[n+]2cccc3ccccc32)O1 (stereo not drawn) [Example 10, 2-heptadecyl 2-methyl 4-[6'-(N-quinolinium)hexanoyloxymethyl) 1,3-dioxolanbromide]
IC50 [1]: 35 nM
Percentage Decrease of leukocyte number (PAF-induced leukopenia; 0.1 mg/kg IV, 1 mn): 38.8 +/- 6.3%
Percentage Variation (leukopenia) (PAF-induced leukopenia; 0.1 mg/kg IV, 1 mn): +6.3%
Percentage Decrease of leukocyte number (PAF-induced leukopenia; 0.1 mg/kg IV, 5 mn): 38.9 +/- 5.7%
Percentage Variation (leukopenia) (PAF-induced leukopenia; 0.1 mg/kg IV, 5 mn): +35.5%
Percentage Decrease of leukocyte number (PAF-induced leukopenia; 0.1 mg/kg IV, 10 mn): 41.2 +/- 6.5%
Percentage Variation (leukopenia) (PAF-induced leukopenia; 0.1 mg/kg IV, 10 mn): +53.2%
Percentage Decrease of leukocyte number (PAF-induced leukopenia; 0.5 mg/kg IV, 1 mn): 17.0 +/- 12.9%
Percentage Variation (leukopenia) (PAF-induced leukopenia; 0.5 mg/kg IV, 1 mn): -58.9%
Percentage Decrease of leukocyte number (PAF-induced leukopenia; 0.5 mg/kg IV, 5 mn): 9.0 +/- 11.8%
Percentage Variation (leukopenia) (PAF-induced leukopenia; 0.5 mg/kg IV, 5 mn): -68.6%
Percentage Decrease of leukocyte number (PAF-induced leukopenia; 0.5 mg/kg IV, 10 mn): -7.6 +/- 17.5%
Percentage Variation (leukopenia) (PAF-induced leukopenia; 0.5 mg/kg IV, 10 mn): +128.3%
Percentage Decrease of leukocyte number (PAF-induced leukopenia; 1 mg/kg IV, 1 mn): 24.1 +/- 6.8%
Percentage Variation (leukopenia) (PAF-induced leukopenia; 1 mg/kg IV, 1 mn): -41.0%
Percentage Decrease of leukocyte number (PAF-induced leukopenia; 1 mg/kg IV, 5 mn): 9.3 +/- 9.4%
Percentage Variation (leukopenia) (PAF-induced leukopenia; 1 mg/kg IV, 5 mn): -67.6%
Percentage Decrease of leukocyte number (PAF-induced leukopenia; 1 mg/kg IV, 10 mn): 8.9 +/- 13.2%
Percentage Variation (leukopenia) (PAF-induced leukopenia; 1 mg/kg IV, 10 mn): -66.9%

CCCCCCCCCCCCCCCCCC1(C)OCC(COC(=O)CCCCC[n+]2ccccc2)O1 (stereo not drawn) [Example 9, 2-heptadecyl 2-methyl 4-[6'-(N-pyridinium)hexanoyloxymethyl] 1,3 dioxolan bromide]
IC50 [1]: 35 nM
Percentage Decrease of leukocyte number (PAF-induced leukopenia; 0.05 mg/kg IV, 1 mn): 45.3 +/- 5.70%
Percentage Variation (leukopenia) (PAF-induced leukopenia; 0.05 mg/kg IV, 1 mn): +11.0%
Percentage Decrease of leukocyte number (PAF-induced leukopenia; 0.05 mg/kg IV, 5 mn): 21.6 +/- 3.42%
Percentage Variation (leukopenia) (PAF-induced leukopenia; 0.05 mg/kg IV, 5 mn): -26.0%
Percentage Decrease of leukocyte number (PAF-induced leukopenia; 0.05 mg/kg IV, 10 mn): 14.2 +/- 17.30%
Percentage Variation (leukopenia) (PAF-induced leukopenia; 0.05 mg/kg IV, 10 mn): -57.6%
Percentage Decrease of leukocyte number (PAF-induced leukopenia; 0.1 mg/kg IV, 1 mn): 41.8 +/- 6.50%
Percentage Variation (leukopenia) (PAF-induced leukopenia; 0.1 mg/kg IV, 1 mn): +2.5%
Percentage Decrease of leukocyte number (PAF-induced leukopenia; 0.1 mg/kg IV, 5 mn): 31.9 +/- 4.88%
Percentage Variation (leukopenia) (PAF-induced leukopenia; 0.1 mg/kg IV, 5 mn): -9.2%
Percentage Decrease of leukocyte number (PAF-induced leukopenia; 0.1 mg/kg IV, 10 mn): 33.5 +/- 4.65%
Percentage Variation (leukopenia) (PAF-induced leukopenia; 0.1 mg/kg IV, 10 mn): 0.0%
Percentage Decrease of leukocyte number (PAF-induced leukopenia; 0.5 mg/kg IV, 1 mn): 34.6 +/- 6.35%
Percentage Variation (leukopenia) (PAF-induced leukopenia; 0.5 mg/kg IV, 1 mn): -15.2%
Percentage Decrease of leukocyte number (PAF-induced leukopenia; 0.5 mg/kg IV, 5 mn): 19.0 +/- 6.42%
Percentage Variation (leukopenia) (PAF-induced leukopenia; 0.5 mg/kg IV, 5 mn): -34.9%
Percentage Decrease of leukocyte number (PAF-induced leukopenia; 0.5 mg/kg IV, 10 mn): 14.6 +/- 5.36%
Percentage Decrease of leukocyte number (PAF-induced leukopenia; 1 mg/kg IV, 1 mn): 3.5 +/- 12.60%
Percentage Variation (leukopenia) (PAF-induced leukopenia; 1 mg/kg IV, 1 mn): -91.4%
Percentage Decrease of leukocyte number (PAF-induced leukopenia; 1 mg/kg IV, 5 mn): 2.9 +/- 10.51%
Percentage Variation (leukopenia) (PAF-induced leukopenia; 1 mg/kg IV, 5 mn): -90.1%
Percentage Decrease of leukocyte number (PAF-induced leukopenia; 1 mg/kg IV, 10 mn): 1.0 +/- 22.62%
Percentage Variation (leukopenia) (PAF-induced leukopenia; 1 mg/kg IV, 10 mn): -97.0%
Percentage Decrease of leukocyte number (PAF-induced leukopenia; 5 mg/kg IV, 1 mn): 16.5 +/- 2.42%
Percentage Variation (leukopenia) (PAF-induced leukopenia; 5 mg/kg IV, 1 mn): -59.6%
Percentage Decrease of leukocyte number (PAF-induced leukopenia; 5 mg/kg IV, 5 mn): 15.9 +/- 0.99%
Percentage Variation (leukopenia) (PAF-induced leukopenia; 5 mg/kg IV, 5 mn): -45.5%
Percentage Decrease of leukocyte number (PAF-induced leukopenia; 5 mg/kg IV, 10 mn): 18.7 +/- 5.08%
Percentage Variation (leukopenia) (PAF-induced leukopenia; 5 mg/kg IV, 10 mn): -44.2%
Percentage Bronchoconstriction [2]: 51.3 +/- 14.2%
effect on antigen-induced bronchoconstriction (in words) [2]: without significantly reducing
Percentage Variation (bronchoconstriction) ([2]; vs control): -28.7%
effect on antigen-induced leukopenia (in words) [3]: antagonizes
Percentage Decrease in leukocytes number ([3]; 1 mn): -15.6 +/- 6.6%
Percentage Inhibition (leukopenia) ([3]; 1 mn): +32.0%
Percentage Decrease in leukocytes number ([3]; 5 mn): -8.7 +/- 10.7%
Percentage Inhibition (leukopenia) ([3]; 5 mn): -78.0%
Percentage Decrease in leukocytes number ([3]; 10 mn): -12.3 +/- 14.1%
Percentage Inhibition (leukopenia) ([3]; 10 mn): -77.2%
effect on antigen-induced thrombocytopenia (in words) [4]: antagonizes
Percentage Inhibition (thrombocytopenia) ([4]; 1 mn): -104.4%
Percentage Inhibition (thrombocytopenia) ([4]; 5 mn): -91.2%
Percentage Inhibition (thrombocytopenia) ([4]; 10 mn): -39.8%
